Non-standard residues stand in square brackets, D forms with d. No end group written: not given here. Hyp = O=C(O)[C@@H]1C[C@@H](O)CN1
What follows are substances tested on C2C12 myoblast (assay: Myoblast differentiation promotion test in myoblast culture (Western blotting of differentiation markers)). Conditions: Western blot band, numerical value in relation to 100 = control, 100 μM final concentration, eight days exposure.
Format: cell-based, mouse
Experimental: Myoblast Differentiation Promotion Test in Myoblast Culture
For culture of C2C12 myoblast derived from mouse, a D-MEM culture medium containing 10% FBS, 100 units/mL sodium penicillin G, 100 μg/mL streptomycin and 1.0 g/L NaHCO3 (D-MEM culture medium (10% FBS, +P/S)) was used. Culture was conducted in an incubator at 37° C. containing 95% air and 5% CO2. In the condition that C2C12 myoblast was 90% confluent, the culture medium was replaced by a D-MEM culture medium including 2% horse serum (HS), 100 units/mL sodium penicillin G, 100 μg/mL streptomycin and 1.0 g/L NaHCO3 (D-MEM culture medium (2% HS+P/S)), and then the D-MEM culture medium (2% HS+P/S) replacement was repeated every two days to lead to differentiation into myotube cells. The peptides of Examples 1 to 21 and Comparative Examples 1 to 3 were added in a final concentration of 100 μM to the culture medium every the culture medium replacement, and cells were continuously exposed thereto for eight days.
The Western blotting method was conducted in the following procedure. The cells used for protein measurement were washed twice with PBS at the time of recovery, and the cells were scraped with a cell scraper and transferred to a tube, and centrifuged at 4° C. and at 250×g for 3 minutes, and then PBS was completely removed. For each tube, the cells were suspended in 100 μL of a buffer (20 mM HEPES-NaOH (pH 7.5), 0.5% NP-40, 1 mM EDTA, 100 μM AEBSF, 1 μg/mL aprotinin, 10 μg/mL leupeptin, 1 mM DTT, 1 mM sodium ortho-vanadate, 10 mM sodium fluoride, 10 μM ammonium molybdate, 10 mM sodium pyrophosphate), and then crushed under ice cooling for 5 seconds three times for each sample by using an ultrasonic disperser, followed by quantification of the amount of a protein. Quantification of the amount of a protein was conducted according to the method of Bradford using bovine serum albumin as a standard protein. After end of SDS-PAGE, a blotting device was used to conduct electro-transferring at 1.5 mA per 1 cm^2 of a membrane for 1 hour on a PVDF membrane equilibrated with methanol and subjected to pre-wetting by infiltration with a transfer buffer (48 mM Tris, 39 mM glycine). After end of the transferring, the PVDF membrane was blocked with PBS (−) containing 6% skim milk for 1 hour. A primary antibody was diluted in the following manner, and an antigen-antibody reaction was conducted overnight at 4° C. A peroxidase-conjugated secondary antibody against each primary antibody was diluted in PBS (−) containing 6% skim milk in the ratios: mouse anti-myosin heavy chain monoclonal antibody (MF20) culture supernatant 1/2000, mouse anti-tropomyosin monoclonal antibody (CH1) culture supernatant 1/2000, rabbit anti-GAPDH polyclonal antibody 1/3000, peroxidase-conjugated anti-mouse IgG 1/5000, and peroxidase-conjugated anti-rabbit IgG 1/2000, allowed to react for 30 minutes, and washed three times with PBS (−) for 10 minutes. Then the membrane was immersed in Immobilon™ Western Chemiluminescent HRP Substrate for 3 minutes, and detected by LAS-4000 (GE Healthcare, Buckinghamshire, UK). A band was converted into numbers by imageJ, and expressed in a numerical value in relation to 100 which was the value of the control.

Substance	Myosin heavy chain	Tropomyosin
Pro-Ala [Example 6]	131	169
[Hyp]-Gly-Pro [Example 2]	166	181
Ala-[Hyp]-Gly [Example 1]	218	191
Pro-Hyp [Example 8]	278	307
Hyp-Gly [Example 7]	334	419
Leu-Hyp [Example 3]	143	195
Gly-Pro-[Hyp] [Example 5]	217	165
Ala-Hyp [Comparative Example 1, reference compound]	62	44
Glu-Hyp [Example 4]	214	140
